Data on 19 compounds can be found in ChEMBL document CHEMBL1152962 (Bioorg Med Chem, 2009).

Test system in the first data set: not listed separately
Nature of the data set: Ratio of Trolox IC50 to compound IC50 for ABTS radical scavenging activity.
As for `O=C(Cc1ccc(O)cc1)c1ccc(O)c(O)c1O`, the Ratio IC50 amounted to 10.

Test system in another data set: not listed separately
Nature of the data set: Ratio of Trolox IC50 to compound IC50 for FeCl2-induced lipid peroxidation. Type of data set: physicochemical.
Turning to `COc1ccc(CC(=O)c2ccc(O)c(O)c2O)cc1OC`, the “Ratio IC50” value is 5.

Test system in the next data set: not listed separately
The data set is described as follows: Ratio of Trolox IC50 to compound IC50 for DPPH radical scavenging activity.
Take `O=C(Cc1ccc(O)cc1)c1cc(O)c(O)cc1O`: the Ratio IC50 amounted to 13.

The target in a further data set is T1, Tyrosinase (Agaricus bisporus, UniProt O42713).
T1 sequence (O42713 whole entry): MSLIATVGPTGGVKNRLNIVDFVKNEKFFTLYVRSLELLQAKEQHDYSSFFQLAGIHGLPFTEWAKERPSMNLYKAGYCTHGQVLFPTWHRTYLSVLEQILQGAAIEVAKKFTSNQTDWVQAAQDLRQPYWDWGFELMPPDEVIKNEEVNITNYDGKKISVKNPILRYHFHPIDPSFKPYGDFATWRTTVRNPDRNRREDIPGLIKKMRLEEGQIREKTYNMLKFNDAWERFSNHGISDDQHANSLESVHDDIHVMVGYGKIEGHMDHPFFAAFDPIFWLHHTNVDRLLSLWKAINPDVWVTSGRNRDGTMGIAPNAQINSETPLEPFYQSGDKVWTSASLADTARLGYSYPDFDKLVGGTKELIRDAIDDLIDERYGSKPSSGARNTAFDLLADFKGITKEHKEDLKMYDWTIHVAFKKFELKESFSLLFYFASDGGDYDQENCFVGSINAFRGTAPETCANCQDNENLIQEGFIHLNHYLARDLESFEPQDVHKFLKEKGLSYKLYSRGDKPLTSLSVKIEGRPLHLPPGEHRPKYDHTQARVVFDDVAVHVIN
Description: Inhibition of mushroom tyrosinase activity after 30 mins by spectrophotometry
`O=C(Cc1ccc(O)cc1)c1ccc(O)cc1O`: it took 178 µM to reach half-maximal inhibition (IC50).
Still for that read-out and setting: in the case of `COc1ccc(CC(=O)c2ccc(O)c(O)c2O)cc1` it was over 300 µM.
Turning to `COc1ccc(CC(=O)c2ccc(O)c(O)c2O)cc1OC`, the IC50 came to 229 µM.
Still for that read-out and setting: the figure for `COc1ccc(CC(=O)c2ccc(O)cc2O)cc1` [ONONETIN] is 78.9 µM.
Same read-out and setting: the figure for `O=C(Cc1ccc(O)cc1)c1ccc(O)c(O)c1O` is over 300 µM; for `COc1ccc(C(=O)Cc2ccc(O)cc2)c(O)c1O` it is 43.4 µM; for `COc1ccc(CC(=O)c2c(O)cc(O)cc2O)cc1` it is 71 µM.
On the same count and under the same terms, in the case of `O=C(Cc1ccc(O)cc1)c1c(O)cc(O)cc1O` it was over 300 µM; in that of `COc1ccc(CC(=O)c2cc(O)c(O)cc2O)cc1`, 84.4 µM.
`COc1ccc(CC(=O)c2ccc(O)c(O)c2)cc1` yielded a half-maximal inhibitory concentration (IC50) of over 300 µM.
On the same count and under the same terms, the figure for `COc1ccc(CC(=O)c2ccc(O)cc2O)cc1OC` is 112 µM.

For the next data set, the target named is T1, Tyrosinase. The source holds these as a separate data set.
Description: Inhibition of mushroom tyrosinase activity after 90 mins by spectrophotometry
The compound `O=C(Cc1ccc(O)cc1)c1ccc(O)cc1O` had a concentration for half-maximal inhibition (IC50) of 136 µM.
`COc1ccc(CC(=O)c2ccc(O)c(O)c2O)cc1` showed a half-inhibitory concentration (IC50) of 203 µM.
`COc1ccc(CC(=O)c2ccc(O)c(O)c2O)cc1OC` showed a half-inhibitory concentration (IC50) of 132 µM.
Regarding `COc1ccc(CC(=O)c2ccc(O)cc2O)cc1` [ONONETIN], the half-maximal inhibitory concentration (IC50) came to 160 µM.
`O=C(Cc1ccc(O)cc1)c1ccc(O)c(O)c1O` gave an IC50 of over 300 µM.
Consider `COc1ccc(C(=O)Cc2ccc(O)cc2)c(O)c1O`, for which the IC50 was 43.1 µM.
The same measure, in the same setting: in the case of `COc1ccc(CC(=O)c2c(O)cc(O)cc2O)cc1` it was 214 µM; in that of `O=C(Cc1ccc(O)cc1)c1c(O)cc(O)cc1O`, over 300 µM.
Still for that read-out and setting: the figure for `COc1ccc(CC(=O)c2cc(O)c(O)cc2O)cc1` is 144 µM.
On the same count and under the same terms, the figure for `COc1ccc(CC(=O)c2ccc(O)c(O)c2)cc1` is 168 µM; for `COc1ccc(CC(=O)c2ccc(O)cc2O)cc1OC` it is 209 µM.

Another data set addresses T1, Tyrosinase. The source holds these as a separate data set.
Description: Inhibition of mushroom tyrosinase activity after 150 mins by spectrophotometry
Compound `O=C(Cc1ccc(O)cc1)c1ccc(O)cc1O` yielded a concentration for half-maximal inhibition (IC50) of 172 µM.
`COc1ccc(CC(=O)c2ccc(O)c(O)c2O)cc1`: 212 µM corresponded to half-maximal inhibition (IC50).
Still for that read-out and setting: in the case of `COc1ccc(CC(=O)c2ccc(O)c(O)c2O)cc1OC` it was 140 µM.
Still for that read-out and setting: in the case of `COc1ccc(CC(=O)c2ccc(O)cc2O)cc1` [ONONETIN] it was 181 µM.
The compound `O=C(Cc1ccc(O)cc1)c1ccc(O)c(O)c1O` yielded a 50% inhibitory concentration (IC50) of over 500 µM.
On the same count and under the same terms, in the case of `COc1ccc(C(=O)Cc2ccc(O)cc2)c(O)c1O` it was 46.1 µM; in that of `COc1ccc(CC(=O)c2c(O)cc(O)cc2O)cc1`, 230 µM; in that of `O=C(Cc1ccc(O)cc1)c1c(O)cc(O)cc1O`, 261 µM.
`COc1ccc(CC(=O)c2cc(O)c(O)cc2O)cc1` came in with an IC50 of 197 µM.
Consider `COc1ccc(CC(=O)c2ccc(O)c(O)c2)cc1`, for which the 50% inhibitory concentration (IC50) worked out at 178 µM.
Turning to `COc1ccc(CC(=O)c2ccc(O)cc2O)cc1OC`, the 50% inhibitory concentration (IC50) came out at 240 µM.

Another data set concerns Radical scavenging activity.
Description: Antioxidant activity assessed as DPPH radical scavenging activity incubated at 40 degC in dark after 30 mins
The compound `Cc1c(C)c2c(c(C)c1O)CCC(C)(C(=O)O)O2` (stereo not given) [TROLOX] gave a 50% inhibitory concentration (IC50) of 9.2 µM.
Same read-out and setting: the figure for `COc1cc(O)c(C(=O)Cc2ccccc2)cc1O` is 20.3 µM.
`O=C(Cc1ccc(O)cc1)c1ccc(O)cc1O` had an IC50 of 25.2 µM.
In the case of `COc1ccc(CC(=O)c2ccc(O)c(O)c2O)cc1`, the IC50 was 21.6 µM.
Compound `COc1ccc(CC(=O)c2ccc(O)c(O)c2O)cc1OC` gave a half-inhibitory concentration (IC50) of 4.34 µM.
For `COc1ccc(CC(=O)c2ccc(O)cc2O)cc1` [ONONETIN], the IC50 was 57.4 µM.
Regarding `COc1ccc(CC(=O)c2cc(O)c(C)c(C)c2O)cc1`, the half-maximal inhibitory concentration (IC50) stood at 21.9 µM.
As for `O=C(Cc1ccc(O)cc1)c1ccc(O)c(O)c1O`, it took 5.69 µM to reach half-maximal inhibition (IC50).
As for `COc1ccc(C(=O)Cc2ccc(O)cc2)c(O)c1O`, it took 25.7 µM to reach half-maximal inhibition (IC50).
Same read-out and setting: the figure for `O=C1O[C@H]([C@@H](O)CO)C(O)=C1O` [ASCORBIC ACID] is 73.7 µM; for `COc1ccc(CC(=O)c2c(O)cc(O)cc2O)cc1` it is 10.8 µM; for `O=C(Cc1ccc(O)cc1)c1cc(O)c(O)cc1O` it is 0.69 µM.
On the same count and under the same terms, the figure for `O=C(Cc1ccc(O)cc1)c1c(O)cc(O)cc1O` is 22.8 µM; for `COc1ccc(CC(=O)c2cc(O)c(O)cc2O)cc1` it is 21.5 µM.
Still for that read-out and setting: in the case of `O=C(Cc1ccccc1)c1c(O)cc(O)cc1O` it was 12.2 µM; in that of `COc1ccc(CC(=O)c2ccc(O)c(O)c2)cc1OC`, 2.53 µM.
`COc1ccc(CC(=O)c2ccc(O)c(O)c2)cc1` had an IC50 of 75.9 µM.
Same read-out and setting: the figure for `COc1ccc(CC(=O)c2c(O)cc(O)cc2O)cc1OC` is 1.35 µM.
Compound `COc1ccc(CC(=O)c2ccc(O)cc2O)cc1OC` yielded an IC50 of 35.1 µM.
